# Data as given in publication PMC6196658, “Activity of Thioallyl Compounds From Garlic Against Giardia duodenalis Trophozoites and in Experimental Giardiasis” (Frontiers in Cellular and Infection Microbiology, 2018).
# “And” between values parts separate entries of the source, which are not always exact repeats. Equal entries are not always repeated.
# Tests used:
# [1] = system: G. duodenalis trophozoites; test: Electron microscopy of exposed trophozoites; type: cell-based, Giardia duodenalis
# Experimental: Trophozoites were exposed to TACs in two ways: under long (24 h, standard toxicity) and short (3 h, acute toxicity) incubations at 37°C using concentrations corresponding to the experimental MLC (as determined at 24 h) and twofold the MLC, respectively. For scanning electron microscopy, PBS-washed parasites were fixed with 2.5% glutaraldehyde in 0.1 M sodium cacodylate buffer, pH 7.2, dehydrated under increasing concentrations of ethanol, critical-point dried using a Samdri apparatus, gold coated in an ion sputtering device (JEOL-JFC-1100), and examined with a JEOL 35-C scanning electron microscope. In transmission electron microscopy (TEM) studies, washed cells were fixed with 2.5% glutaraldehyde and post-fixed with 1% osmium tetroxide in cacodylate buffer. Following sequential dehydration in ethanol, samples were embedded with epoxy resins.
# Entamoeba histolytica = system: Entamoeba histolytica; parameters: method as in Ankri et al., 1997; settings: ref Ankri et al., 1997; cited from earlier work
# [2] = system: G. duodenalis trophozoites; test: ROS formation, H2DCFDA flow cytometry; type: cell-based, Giardia duodenalis; settings: 1.2 mM (twice MLC), 24 h
# Experimental: (§1) The identification and quantitative determinations of trophozoites were carried out as follows: (a) apoptosis or necrosis were determined using anti-annexin V-fluorescein isothiocyanate (FITC) antibodies or PI as respective markers, (b) oxidative stress was determined by formation of reactive oxygen species (ROS) with the fluorescent ROS-complexing agent 5-(and 6)-carboxy 2′7′-dichlorodihydrofluorescein diacetate (H2DCFDA), and (c) determination of trophozoites cell cycle stages (G1, S, G2, and G2/M) after exposure to ALC or to a control drug (albendazole, ABZ) was carried out as previously described (Martínez-Espinosa et al., [2015]). In all these assays 20,000 cells per sample were recorded.
# [3] = system: G. duodenalis trophozoites; test: Annexin V-PI flow cytometry (apoptosis/necrosis); type: cell-based, Giardia duodenalis; settings: 0.6 mM (MLC), 24 h
# Experimental: as §1
# [4] = system: G. duodenalis trophozoites; test: Efficacy in experimental giardiasis; settings: for cure rate (gerbils without trophozoites): read day 13
# Experimental: Eighty male Mongolian gerbils (M. unguiculatus) 6–10 weeks old, weighted 45–60 g and sentinel-checked gerbils free of intestinal parasites were kept in individual cages and distributed in 12 groups of 6 animals per treatment and experimental infections were performed as described elsewhere (Argüello-García and Ortega-Pierres, [1997]). In brief, animals were inoculated intragastrically with 1 × 10^6 G. duodenalis trophozoites in 500 μl sterile PBS per os using gavage under ether anesthesia. Control animals received 500 μl sterile PBS each. […] As additional control, one group of animals received MTZ (38.4 mg/kg at single or double dose). […] Treatment efficacy was evaluated by determining the presence or absence of trophozoites in intestinal contents of control and treated gerbils at day 13 post-infection. For this, gerbils were euthanized by an intraperitoneal injection of pentobarbital at a dose of 150 mg/kg to minimize stress and to reduce suffering, then a 10 cm-long section of intestine (from stomach ending, equivalent to nearly the entire small intestine) was excised after laparotomy, and it was longitudinally opened and rinsed in 20 mL PBS at 4°C for 20 min under shaking (720 rpm, Heidolph^TM rotatory shaker) to determine trophozoites number after parasite detachment from microvilli. Supernatant was collected and centrifuged at 750 × g for 10 min at 4°C, cell pellet was resuspended in 1 mL PBS and trophozoites were counted using a haemocytometer. Gerbils were scored as cured if no trophozoites were recovered from infected animals.
# Babesia microti = system: Babesia microti; parameters: method as in Salama et al., 2014; settings: mice, 30 mg/kg orally for 5 days; ref Salama et al., 2014; cited from earlier work
# giardipain-1 = biological target: T1, giardipain-1 (Giardia intestinalis, UniProt P92132); test: Inhibition of cytolytic effect of giardipain-1 on IEC6 cell monolayers; type: cell-based, Giardia duodenalis; settings: 5.3 mM pre-incubated 30 min with giardipain-1 16 μg/mL; 100 min
# T1 construct: the 25 kDa band that contains the processed form of the cathepsin B-like protease named as giardipain-1; endogenous in cells
# Experimental: Additional assays were carried out using the MLCs of TACs (without giardipain-1) previously obtained in trophozoite cultures to monitor their toxicity. These solutions were added to monolayers of the intestinal cell line IEC6 grown in 1 cm^2-microwells and incubated for 100 min at 37°C. After incubation, supernatants were discarded and monolayers were fixed with 2% paraformaldehyde in PBS. The effects of TACs and E64 on the cytolytic effect of giardipain-1 were evaluated by light microscopy using Nomarski optics (Axioskop 40, Zeiss).
# [5] = system: G. duodenalis trophozoites; test: Cell cycle stages, PI flow cytometry; type: cell-based, Giardia duodenalis; settings: 24 h
# Experimental: as §1
# [6] = system: cysteine protease activities in trophozoite lysates; test: Proteolytic activity assay (gelatin zymogram); type: biochemical, Giardia duodenalis; settings: 3.5 mM; bands 110, 60, 75 and 25 kDa
# Experimental: Trophozoite lysates were prepared as mentioned above except that cell lysis was carried out by sonication in 1.5 mL microcentrifuge tubes under ice bath using eight 15-s pulses at 80% amplitude with resting periods of 30 s (Ultrasonic Processor mod. CV19). Protein concentration was adjusted to 2 mg/mL and aliquoted in 25 μL fractions that were incubated for 30 min room temperature with 2–5 μL stock solutions of representative TACs (ALC, DADS, and AM). The reaction mixtures were diluted in Laemmli's sample buffer, loaded in wells of 10% acrylamide-02% gelatin slab gels and these were electrophoretically analyzed using 80 V/4°C. After this, gels were incubated in a solution of triton X-100 2.5% (v/v) in water for 1 h and washed 3 times with distilled water. Bands with proteolytic activity were detected as follows: gels were incubated in acetate buffer pH 5.5 with 1 mM DTT for 16 h at 37°C under constant stirring, washed 3 times with distilled water and stained with Coomassie blue (BioRad) for 2 h at 37°C under constant stirring. Finally, gels were washed with distilled water and incubated with a solution of 5% acetic acid/40% methanol (v/v). Gel images were documented with a UVP High Performance Ultraviolet Transilluminator and software Launch DocItLS.
# T1 sequence (P92132 75-300): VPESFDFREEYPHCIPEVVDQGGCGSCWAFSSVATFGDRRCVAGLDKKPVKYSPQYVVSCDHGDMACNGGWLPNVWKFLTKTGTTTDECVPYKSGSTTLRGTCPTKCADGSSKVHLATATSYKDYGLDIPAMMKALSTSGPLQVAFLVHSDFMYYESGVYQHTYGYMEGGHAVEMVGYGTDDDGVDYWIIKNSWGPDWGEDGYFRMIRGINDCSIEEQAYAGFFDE
compound,measurement,setting,value
"C=CCS[S+]([O-])CC=C (stereo not drawn) [ALC, diallyl thiosulfinate]",surface damage by scanning electron microscopy,"[1]; 600 μM, 24 h (standard toxicity)",membrane blebbing process with profuse holes
same,intracellular damage by transmission electron microscopy,[1]; standard (600 μM 24 h) or acute (1.2 mM 3 h) protocol,complete loss of electron density of the intracellular elements and the integrity of plasma membrane
same,IC60,Entamoeba histolytica,500 µM
same,cells positive for ROS (total),[2],0.75%
same,R4 cells positive for early apoptosis (annexin V+),[3],10.2%
same,cure rate (gerbils without trophozoites),[4]; 35 mg/kg single dose intragastric day 10 p.i.,3 out of 6
same,cure rate (gerbils without trophozoites),[4]; 70 mg/kg single dose intragastric day 10 p.i.,5 out of 6 and 5/6
same,cure rate (gerbils without trophozoites),[4]; 138 mg/kg single dose intragastric day 10 p.i.,6 out of 6 and 6/6
same,cure rate (gerbils without trophozoites),[4]; 276 mg/kg single dose intragastric day 10 p.i.,5 out of 6
same,intestinal parasite numbers,"[4]; increasing single doses 35-276 mg/kg, day 13 p.i.",progressive decrease in parasite numbers
same,parasitemia,Babesia microti,significantly reduced parasitemia
same,effect on giardipain-1 cytopathic damage in IEC6 monolayers,giardipain-1,noticeably blocked these effects
same,cells at G1 phase,[5]; 0.6 mM,7.4% and 7.43%
same,cells at G2/M phase,[5]; 0.6 mM,4.4% and 4.44%
same,cells at G2 phase,[5]; 0.6 mM,61.0% and 61.09%
same,cells at S phase,[5]; 0.6 mM,27.03%
same,cells at G1 phase,[5]; 1.2 mM,2.2% and 2.22%
same,cells at G2/M phase,[5]; 1.2 mM,5.7% and 5.72%
same,cells at G2 phase,[5]; 1.2 mM,75.53%
same,cells at S phase,[5]; 1.2 mM,5.7% and 5.72%
same,effect on proteolytic bands in zymogram,[6],strongly inhibited
